Assay results published in patent publication US10792301B2, “Therapeutic polysaccharide midi-GAGR and related materials and methods” (priority 2015, dated 2020).

Columns and labels:
[1] = tested on: phosphorylated CREB in differentiated PC12 cells; experiment: Nuclear p-CREB immunostaining in PC12 cells; assay type: cell-based; conditions: 1 μM, 24 h
Description: Differentiated PC12 cells and mouse embryonic cortical neurons (E17, DIV14) were treated with mock, dextran, alginate, HA-GAGR or midi-GAGR (1 μM) for 24 h and fixed in 3.7% paraformaldehyde. The fixed cells and neurons were immunostained with antibodies against α-tubulin and phosopho-CREB (p-CREB) along with DAPI (nucleus).

[2] = tested on: Mouse cortical neurons (E17, DIV5); experiment: LIVE/DEAD assay, pre-treated mouse cortical neurons with 4HNE, H2O2 or Aβ42; assay type: cell-based; conditions: pre-treatment 24 h (1 μM midi-GAGR, dextran, alginate; 0.1 μM LA-GAGR; 0.01 μM HA-GAGR)
Source text: The protective effect of polysaccharides on primary cortical neurons from 4HNE, H2O2, and Aβ42 peptide (Sigma) was examined using LIVE/DEAD® Viability/Cytotoxicity Assay Kit (Life Technologies). Female pregnant mice (BALB/C, E17, Charles River Laboratories International, Inc.) or female pregnant SD rats (E17, bred in house) were anesthetized and dissected to obtain 8-9 embryos per animal. Cortical neurons were isolated from embryonic brains and differentiated on poly-L-lysine-coated coverslips in B27/neurobasal medium. For drug treatment before free radical treatment, mouse cortical neurons (5 days in vitro [DIV5.]) were treated with vehicle (H2O), 1 μM of 5 kD dextran (Sigma), alginate (Sigma), midi-GAGR, 0.01 μM of high acyl gellan gum (HA-GAGR, CPKelco Co.), or 0.1 μM of LA-GAGR for 24 h and then treated with 10 μM 4HNE or 50 μM H2O2 for 24 h, or 2 μM A[…]42 peptide for 48 h prior to viability/cytotoxicity assay. For drug co-treatment with free radicals, rat cortical neurons (DIV5) were treated with 1 μM of dextran, alginate, or midi-GAGR, 0.01 μM of HA-GAGR, or 0.1 μM of LA-GAGR along with either 10 μM 4HNE (24 h) or 2 μM Aβ42 peptide (48 h). To examine the extent to which midi-GAGR-mediated neuroprotection depends on FGFR1, rat cortical neurons (E17, DIV5) were pre-treated with 4 μM SU5402 (Sigma) for 6 h and treated with 10 μM 4HNE and either vehicle or 1 μM midi-GAGR for 24 h prior to cell viability/cytotoxicity assay. As controls, neurons were treated with SU5402, midi-GAGR, 4HNE, 4HNE plus midi-GAGR, or SU5402 plus midi-GAGR.
For cell viability/cytotoxicity measurement, neurons on glass coverslips were incubated in 1×PBS containing 2 μM calcein AM (live cells: green) and 4 μM ethidium homodimer-1 (dead cells: red) for 10 min at 37° C. Immediately thereafter, neurons were imaged by 10×objective using a fluorescence Olympus IX71 microscope (Olympus America Inc., Center Valley, Pa.) and, for the acquisition of high-quality images, using TCS SP5 multi-photon laser scanning confocal microscope.
Midi-GAGR attenuated neurite atrophy caused by free reactive radicals. It is now shown herein that midi-GAGR protect neurons from the death caused by free radical insults. The extent to which midi-GAGR protects the primary culture of rodent cortical neurons from 4HNE and H2O2 was determined. In addition to the radicals, amyloid β peptide (Aβ42) was also tested. Aβ42 peptide is a major causative factor that causes oxidative stress and neuron death. Mouse cortical neurons (E17, DIV5) were treated with 10 μM 4HNE (24 h), 50 μM H2O2 (24 h), or 2 μM Aβ42 peptide (48 h) after the treatment of the neurons with vehicle (H2O), midi-GAGR (1 μM), dextran (1 μM), alginate (1 μM), LA-GAGR (0.1 μM), or HA-GAGR (0.01 μM) for 24 h. The concentrations of 4HNE, H2O2, and Aβ42 peptide were chosen according to their patho-physiological concentrations. The concentrations of LA-GAGR and HA-GAGR were chosen because, within the same volume, the total numbers of sugar units in the polysaccharides at the concentrations are close to that of 1 μM midi-GAGR. The viability of neurons was assessed using LIVE/DEAD® Viability/Cytotoxicity Assay Kit in which membrane-permeant calcein AM is cleaved by esterase in live cells, thus yielding green fluorescence, and membrane-impermeant ethidium homodimer-1 stains the nucleic acids of plasma membrane-compromised cells with red fluorescence. The numbers of green (live) and red (dead) neurons in each condition were counted using Metamorph. Although the intensities of green fluorescent signals in neurons treated with either free radicals or Aβ42 peptide were weak, the neurons were included in the counting. About 8-9% of vehicle-treated neurons died during the process of live/dead cell assay (FIGS. 23A-23F, FIGS. 24A-24C).

Substance: dextran
- increase of the levels of nuclear p-CREB [1]: not significantly increased
- neuron death after Aβ42 peptide ([2]; 2 μM Aβ42 48 h, vehicle about 30%): did not decrease
- neuron death after H2O2 ([2]; 50 μM H2O2 24 h, vehicle ~25%): did not reduce
